pKi: −log10 of the molar value. Counter-ions that a name gives are not always drawn.

For experiment [1], the target named is recombinant human enteropeptidase (Homo sapiens (Human), UniProt P98073). The experiment can be described thus: Measurement of enteropeptidase inhibitory activity. In kind it is biochemical. Particulars: for pKi: recombinant human enteropeptidase, Gly-Asp-Asp-Asp-Asp-Lys-β-Naphtylamide substrate, Dixon plot. As to the method: Measurement of Enteropeptidase Inhibitory Activity
recombinant human enteropeptidase, sequence (P98073 whole entry): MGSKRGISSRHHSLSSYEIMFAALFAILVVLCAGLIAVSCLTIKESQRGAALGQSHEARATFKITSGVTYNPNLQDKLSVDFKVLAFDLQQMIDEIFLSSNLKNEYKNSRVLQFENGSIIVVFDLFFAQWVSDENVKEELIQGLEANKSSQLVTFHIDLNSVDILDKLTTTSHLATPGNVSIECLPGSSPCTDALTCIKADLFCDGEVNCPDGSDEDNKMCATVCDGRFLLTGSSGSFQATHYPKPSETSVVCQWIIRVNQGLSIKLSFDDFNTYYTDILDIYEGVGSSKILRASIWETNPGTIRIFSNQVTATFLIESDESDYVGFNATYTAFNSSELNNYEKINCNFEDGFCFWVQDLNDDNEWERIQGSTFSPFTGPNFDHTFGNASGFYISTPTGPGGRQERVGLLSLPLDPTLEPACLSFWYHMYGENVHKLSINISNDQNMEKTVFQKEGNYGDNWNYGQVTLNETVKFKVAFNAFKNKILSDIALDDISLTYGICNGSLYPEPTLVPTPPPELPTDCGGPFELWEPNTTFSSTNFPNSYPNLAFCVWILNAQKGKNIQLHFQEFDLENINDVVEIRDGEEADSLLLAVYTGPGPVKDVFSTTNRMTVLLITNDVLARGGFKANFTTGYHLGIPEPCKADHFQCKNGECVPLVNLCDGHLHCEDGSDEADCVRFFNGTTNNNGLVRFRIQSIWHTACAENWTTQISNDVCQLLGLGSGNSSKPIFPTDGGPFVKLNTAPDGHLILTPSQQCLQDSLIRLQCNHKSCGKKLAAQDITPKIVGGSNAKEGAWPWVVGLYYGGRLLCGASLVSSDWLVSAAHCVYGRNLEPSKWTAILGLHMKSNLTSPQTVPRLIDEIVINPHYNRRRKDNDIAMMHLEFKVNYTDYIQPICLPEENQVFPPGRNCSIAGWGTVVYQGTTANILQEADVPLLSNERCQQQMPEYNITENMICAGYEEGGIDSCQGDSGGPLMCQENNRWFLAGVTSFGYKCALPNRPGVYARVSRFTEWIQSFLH
Using a 96 well plate (#3915, Costar), a test compound (25 μL), 400 mM Tris-HCl buffer (pH 8.0, 25 μL) and 0.5 mg/mL fluorescence enzyme substrate (Gly-Asp-Asp-Asp-Asp-Lys-β-Naphtylamide, 25 μL) were mixed, and recombinant human enteropeptidase (R&D Systems, Inc., 25 μL) was added. Using a fluorescence plate reader fmax (Molecular Devices, Inc.), the reaction rate was measured from the time-course changes at excitation wavelength 320 nm and fluorescence wavelength 405 nm. The Ki value was calculated from the concentration of the test compound, reciprocal of reaction rate, and Km value of the enzyme substrate, and by using Dixon plot.

A further experiment deals with human trypsin (Homo sapiens, UniProt P07477). As to the kind of experiment: Measurement of trypsin inhibitory activity. Particulars: for pKi: human trypsin, Boc-Phe-Ser-Arg-AMC substrate, Dixon plot. It is filed as biochemical. As to the method:
Measurement of Trypsin Inhibitory Activity
Using a 96 well plate (#3915, Costar), a test compound (25 μL) was mixed with 20 μM fluorescence enzyme substrate (Boc-Phe-Ser-Arg-AMC, 50 μL) mixed with 200 mM Tris-HCl buffer (pH 8.0), and human trypsin (Sigma, 25 μL) was added. Using a fluorescence plate reader fmax (Molecular Devices, Inc.), the reaction rate was measured from the time-course changes at excitation wavelength 355 nm and fluorescence wavelength 460 nm. The Ki value was calculated from the concentration of the test compound, reciprocal of reaction rate, and Km value of the enzyme substrate, and by using Dixon plot.

The test system of another experiment is KK-A^y/JCL mice. As to the kind of experiment: Evaluation of antidiabetic action (Experimental Example 4). Particulars: mixed in feed for one week, versus control group. In kind it is in vivo. The source says: Evaluation of Antidiabetic Action KK-A^y/JCL mice (male, 5- to 7-week-old, CLEA Japan, Inc.) known to spontaneously develop obese type 2 diabetes were purchased and, after one week of preliminary rearing period, grouped (6 per group) with the body weight and non-fasting blood glucose levels as indices. The animals were individually housed in a polycarbonate cage and allowed to drink water freely from a watering bottle. […] CRF-1 alone was given to the control group. After one week of dosing period, the blood (6 μL) was drawn from the tail vein of the animals, and the blood glucose level was measured by ACCU-CHEK Aviva (Roche Diagnostics K.K.). A significant difference from the control group was detected by Dunnett's multiple comparison test or Student's t-test (significance level less than 5%).

For `N=C(N)c1ccc(OC(=O)c2cc3c(s2)CN(C(=O)N[C@@H](CC(=O)O)C(=O)O)CC3)c(F)c1` [B-55, N-{[2-(4-amidino-2-fluorophenoxycarbonyl)-4,5,6,7-tetrahydrothieno[2,3-c]pyridin-6-yl]carbonyl}-L-aspartic acid trifluoroacetate], the pKi (as a rule, −log10 of the Ki, conventionally taken in molar units) is 9.70 in experiment [1] and 9.62 at human trypsin.

For `N=C(N)c1ccc(OC(=O)c2ccc(CNC3(C(=O)N[C@@H](CC(=O)O)C(=O)O)CC3)s2)c(F)c1` [B-37, N-(1-{[5-(4-amidino-2-fluorophenoxycarbonyl)thiophen-2-yl]methylamino}cyclopropanecarbonyl)-L-aspartic acid bis(trifluoroacetate)], the figures for the pKi (in experiment [1]; at human trypsin) were 8.90 and 8.80, respectively.

With `N=C(N)c1ccc(OC(=O)c2ccc(CN3CCC[C@@H]3C(=O)N[C@@H](CS(=O)(=O)O)C(=O)O)s2)cc1` [B-12], the pKi in experiment [1] was 9.02; on human trypsin it was 8.94.

Consider `N=C(N)c1ccc(OC(=O)c2ccc(Cn3cccc3C(=O)O)s2)c(F)c1` [B-42, N-{[5-(4-amidino-2-fluorophenoxycarbonyl)thiophen-2-yl]methyl}-1H-pyrrole-2-carboxylic acid trifluoroacetate], for which the figures for the negative-log Ki (pKi) (in experiment [1]; on human trypsin) were 9.21 and 9.09, respectively.

Consider `CN(Cc1ccc(C(=O)Oc2ccc(C(=N)N)cc2F)s1)C(=O)N[C@@H](CC(=O)O)C(=O)O` [B-46], for which the values for the negative-log Ki (pKi) (in experiment [1]; on human trypsin) were 9.42 and 9.06, respectively.

As to `CC(C)[C@@H](C(=O)N[C@@H](CC(=O)O)C(=O)O)N(C)Cc1ccc(C(=O)Oc2ccc(C(=N)N)cc2)o1` [A-14, N—(N-{[5-(4-amidinophenoxycarbonyl)furan-2-yl]methyl}-N-methyl-L-valyl)-L-aspartic acid bis(trifluoroacetate)], the pKi is 9.25 in experiment [1] and 9.35 on human trypsin.

For the compound `N=C(N)c1ccc(OC(=O)c2ccc(CN3CCC[C@H]3C(=O)N[C@@H](CS(=O)(=O)O)C(=O)O)o2)cc1` [A-10], the pKi was 9.19 in experiment [1] and 9.01 on human trypsin.

As to `N=C(N)c1ccc(OC(=O)c2ccc(CN3CCC[C@@H]3C(=O)N[C@@H](CS(=O)(=O)O)C(=O)O)o2)cc1` [A-5], the pKi is 9.09 in experiment [1] and 9.62 at human trypsin.

With `C=CCN(CC(=O)O)C(=O)[C@@H]1CSCN1Cc1ccc(C(=O)Oc2ccc(C(=N)N)cc2F)s1` [B-21], the values for the pKi (in experiment [1]; at human trypsin) were 9.00 and 9.42, respectively.

Turning to `C=CCN(CC(=O)O)C(=O)[C@@H]1CCCN1Cc1ccc(C(=O)Oc2ccc(C(=N)N)cc2F)s1` [B-11], the pKi in experiment [1] was 9.11; at human trypsin it was 9.19.

With `N=C(N)c1ccc2cc(OC(=O)c3ccc(CN4CCC[C@@H]4C(=O)N[C@@H](CS(=O)(=O)O)C(=O)O)o3)ccc2c1` [A-6], the negative-log Ki (pKi) in experiment [1] is 9.17; at human trypsin, 10.10.

With `CC(C)[C@@H](C(=O)N[C@@H](CC(=O)O)C(=O)O)N(C)Cc1ccc(C(=O)Oc2ccc(C(=N)N)cc2F)s1` [B-23], the pKi is 9.12 in experiment [1] and 9.36 on human trypsin.

On to `N=C(N)c1ccc(OC(=O)c2cc3c(s2)CN(CC(=O)O)CC3)c(F)c1` [B-43, {2-[(4-amidino-2-fluorophenoxy)carbonyl]-4,5-dihydrothieno[2,3-c]pyridin-6(7H)-yl}acetic acid bis(trifluoroacetate)], for which the values for the negative logarithm of the Ki (pKi) (in experiment [1]; on human trypsin) were 9.16 and 9.25, respectively.

On to `CC(C)C[C@@H](C(=O)N[C@@H](CC(=O)O)C(=O)O)N(C)Cc1ccc(C(=O)Oc2ccc(C(=N)N)cc2F)s1` [B-35], for which the negative-log Ki (pKi) was 9.28 in experiment [1] and 9.09 at human trypsin.

As for `CC(C)N(Cc1ccc(C(=O)Oc2ccc(C(=N)N)cc2F)s1)C(=O)N[C@@H](CC(=O)O)C(=O)O` [B-47], the negative-log Ki (pKi) is 9.48 in experiment [1] and 9.16 on human trypsin.

For the compound `CC(C)C[C@@H](C(=O)N[C@H](CCC(=O)O)C(=O)O)N(C)Cc1ccc(C(=O)Oc2ccc(C(=N)N)cc2F)s1` [B-36], the pKi in experiment [1] was 9.21; at human trypsin, 9.05.

`CC(C)N(Cc1ccc(C(=O)Oc2ccc(C(=N)N)cc2)o1)C(=O)N[C@@H](CC(=O)O)C(=O)O` [A-21]: the results for the negative logarithm of the Ki (pKi) (in experiment [1]; at human trypsin) were 9.42 and 9.08, respectively.

Take `CC(C)[C@H](C(=O)N[C@@H](CC(=O)O)C(=O)O)N(C)Cc1ccc(C(=O)Oc2ccc(C(=N)N)cc2F)s1` [B-27, N—(N-{[5-(4-amidino-2-fluorophenoxycarbonyl)thiophen-2-yl]methyl}-N-methyl-D-valyl)-L-aspartic acid bis(trifluoroacetate)]: the pKi is 9.11 in experiment [1] and 9.17 at human trypsin.

As to `CN(Cc1ccc(C(=O)Oc2ccc(C(=N)N)cc2F)s1)[C@H](Cc1ccccc1)C(=O)N[C@H](CC(=O)O)C(=O)O` [B-59, N—(N-{5-[(4-amidino-2-fluorophenoxy)carbonyl]thiophen-2-yl}methyl-N-methyl-D-phenylalanyl)-D-aspartic acid bis(trifluoroacetate)], the values for the negative logarithm of the Ki (pKi) (in experiment [1]; at human trypsin) were 9.01 and 8.48, respectively.

Take `N=C(N)c1ccc(OC(=O)c2ccc(CN3CSC[C@H]3C(=O)N[C@@H](CC(=O)O)C(=O)O)s2)c(F)c1` [B-20]: the negative logarithm of the Ki (pKi) in experiment [1] is 9.82; on human trypsin, 9.68.

Take `N=C(N)c1ccc(OC(=O)c2ccc(CCC(=O)N[C@@H](CC(=O)O)C(=O)O)s2)c(F)c1.O=C(O)C(F)(F)F` [reference compound A, N-{3-[5-(4-amidino-2-fluorophenoxycarbonyl)thiophen-2-yl]propanoyl}-L-aspartic acid trifluoroacetate, reference compound]: the pKi in experiment [1] is 8.87. In addition, the “enteropeptidase inhibitory activity (in words)” value in experiment [1] (summary statement) is “superior”. In addition, in the experiment on KK-A^y/JCL mice, the hypoglycemic action result is recorded as “significant hypoglycemic action”. In addition, the “trypsin inhibitory activity (in words)” value at human trypsin (summary statement) is recorded as “superior”.

On to `N=C(N)c1ccc(OC(=O)c2ccc(CN3CCC[C@@H]3C(=O)N[C@@H](CS(=O)(=O)O)C(=O)O)s2)c(F)c1` [B-14], for which the pKi in experiment [1] was 9.62; at human trypsin, 9.72.

Consider `C=CCN(C(=O)CN1CCc2cc(C(=O)Oc3ccc(C(=N)N)cc3F)sc2C1)[C@@H](CCC(=O)O)C(=O)O` [B-45, N-allyl-N-({2-[(4-amidino-2-fluorophenoxy)carbonyl]-4,5-dihydrothieno[2,3-c]pyridin-6(7H)-yl}acetyl)-L-glutamic acid bis(trifluoroacetate)], for which the pKi was 9.21 in experiment [1] and 9.15 at human trypsin.

On to `CC(C)C[C@@H](C(=O)N[C@@H](CCC(=O)O)C(=O)O)N(C)Cc1ccc(C(=O)Oc2ccc(C(=N)N)cc2F)s1` [B-32], for which the pKi in experiment [1] is 9.05; on human trypsin, 9.15.

Turning to `CN(Cc1ccc(C(=O)Oc2ccc(C(=N)N)cc2)o1)C(=O)N[C@@H](CC(=O)O)C(=O)O` [A-20], the pKi in experiment [1] is 9.03; at human trypsin, 9.27.

Regarding `N=C(N)c1ccc(OC(=O)c2ccc(CN3CCC[C@@H]3C(=O)N(CCC(=O)O)CC(=O)O)s2)c(F)c1` [B-60, N-{5-[(4-amidino-2-fluorophenoxy)carbonyl]thiophen-2-yl}methyl-D-proline N-(2-carboxyethyl)-N-carboxymethylamide bis(trifluoroacetate)], the negative logarithm of the Ki (pKi) in experiment [1] was 9.28; at human trypsin it was 9.38.

`CC(C)[C@@H](C(=O)N[C@@H](CCC(=O)O)C(=O)O)N(C)Cc1ccc(C(=O)Oc2ccc(C(=N)N)cc2F)s1` [B-26]: the pKi in experiment [1] was 9.00; at human trypsin, 9.42.

`N=C(N)c1ccc(OC(=O)c2ccc(CN3CCCC[C@H]3C(=O)N[C@@H](CC(=O)O)C(=O)O)s2)c(F)c1` [B-18]: the figures for the pKi (in experiment [1]; at human trypsin) were 9.36 and 9.04, respectively.

For the compound `N=C(N)c1ccc(OC(=O)c2ccc(CN3CCC[C@H]3C(=O)N[C@@H](CS(=O)(=O)O)C(=O)O)s2)c(F)c1` [B-10], the negative logarithm of the Ki (pKi) in experiment [1] was 9.62; on human trypsin it was 9.60.

Turning to `C=CCN(CC(=O)N[C@@H](CC(=O)O)C(=O)O)C(=O)CCc1ccc(C(=O)Oc2ccc(C(=N)N)cc2F)s1` [B-56, N—[N-allyl-N-(3-{5-[(4-amidino-2-fluorophenoxy)carbonyl]thiophen-2-yl}propanoyl)glycyl]-L-aspartic acid trifluoroacetate], the pKi in experiment [1] was 9.11; at human trypsin, 9.37.

Consider `N=C(N)c1ccc(OC(=O)c2ccc(CN3CCC[C@@H]3C(=O)N[C@H](CC(=O)O)C(=O)O)s2)c(F)c1` [B-15], for which the negative logarithm of the Ki (pKi) was 9.16 in experiment [1] and 9.28 on human trypsin.

For the compound `N=C(N)c1ccc(OC(=O)c2ccc(CN3CCC[C@@H]3C(=O)N[C@@H](CC(=O)O)C(=O)O)s2)c(F)c1` [B-13], the negative-log Ki (pKi) was 9.37 in experiment [1] and 9.54 at human trypsin.
